Measured values: patent US8362000B2, “Azetidinyl diamides as monoacylglycerol lipase inhibitors” (Janssen Pharmaceutica NV, priority 2009, dated 2013)
Numbering of substitutions follows the chain as printed. Like-named read-outs stand apart in the source and are kept apart here.

Assays:
[1] = molecular target: T1, mutant MGL (Homo sapiens, UniProt Q99685, L169S/L176S); assay: MGL ThermoFluor assay - mutant; format: binding
T1 sequence (Q99685 1-303 L169S/L176S): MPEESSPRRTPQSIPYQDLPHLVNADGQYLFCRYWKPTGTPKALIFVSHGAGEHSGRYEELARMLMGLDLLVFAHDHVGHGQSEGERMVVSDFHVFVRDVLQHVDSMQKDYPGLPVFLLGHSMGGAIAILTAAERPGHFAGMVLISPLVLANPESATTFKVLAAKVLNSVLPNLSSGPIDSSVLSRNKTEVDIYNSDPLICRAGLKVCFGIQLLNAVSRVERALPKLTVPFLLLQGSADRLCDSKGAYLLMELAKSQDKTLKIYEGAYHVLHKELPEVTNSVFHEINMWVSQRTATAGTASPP

[2] = molecular target: T2, purified wild type MGL (wt-MGLL 6H-11-313) (Homo sapiens, UniProt Q99685)
T2 sequence (Q99685 1-303): T1 sequence (Q99685 1-303 L169S/L176S) with S169L, S176L

[3] = ThermoFluor, compound concentration measured by qNMR, read-out: MGL mutant ThermoFluor qKd (using qNMR conc.)
[4] = ThermoFluor thermal stability binding assay, read-out: MGL mutant ThermoFluor Kd
[5] = ThermoFluor concentration-response, read-out: MGL mutant ThermoFluor Kd
[6] = ThermoFluor, compound concentration measured by qNMR, read-out: MGL mutant ThermoFluor qKd (μM) (using qNMR conc.)
[7] = compound concentration measured by qNMR, read-out: MGL mutant ThermoFluor qKd (using qNMR conc.)

Row | Compound | IC50 [2] [µM] | also measured
1 | O=C(c1ccc2c(ccn2-c2ccccn2)c1)N1CC(N2CCN(C(=O)c3ccc[nH]3)CC2)C1 [Cpd 1189, 1-Pyridin-2-yl-5-({3-[4-(1H-pyrrol-2-ylcarbonyl)piperazin-1-yl]azetidin-1-yl}carbonyl)-1H-indole] | 0.097 | Kd [1, 3]: 0.153 µM
2 | O=C(c1nccs1)N1CCN(C2CN(C(=O)c3cccc4oc(-c5cccc(Cl)c5)nc34)C2)CC1 [Cpd 1191] | 0.105 | Kd [1, 4]: 0.011 µM
3 | O=C(c1ccc2c(ccn2-c2cccnc2)c1)N1CC(N2CCN(C(=O)c3nccs3)CC2)C1 [Cpd 1192, 1-Pyridin-3-yl-5-({3-[4-(1,3-thiazol-2-ylcarbonyl)piperazin-1-yl]azetidin-1-yl}carbonyl)-1H-indole] | 0.109 | Kd [1, 3]: 0.035 µM
4 | Cn1nc(-c2ccc(F)cc2)c2cc(C(=O)N3CC(N4CCN(C(=O)c5nccs5)CC4)C3)ccc21 [Cpd 1195] | 0.12 | Kd [1, 5]: 0.023 µM
5 | COc1cncc(-c2ccc3cc(C(=O)N4CC(N5CCN(C(=O)c6nccs6)CC5)C4)[nH]c3c2)c1 [Cpd 1196] | 0.123 | Kd [1, 6]: 0.37 µM
6 | Cc1c(C(=O)N2CC(N3CCN(C(=O)c4cscn4)CC3)C2)nn(-c2ccc(Cl)cc2Cl)c1-c1ccc(Cl)cc1 [Cpd 1198] | 0.143 | Kd [1, 4]: 0.03 µM
7 | Cc1nc(-c2ccccc2F)sc1C(=O)N1CC(N2CCN(C(=O)c3nccs3)CC2)C1 [Cpd 1202] | 0.152 | Kd [1, 5]: 0.065 µM
8 | Cc1nn(-c2ccc(F)cc2)c2ncc(C(=O)N3CC(N4CCN(C(=O)c5nccs5)CC4)C3)cc12 [Cpd 1203] | 0.153 | Kd [1, 3]: 0.015 µM
9 | O=C(c1cc2ccc(-c3ccc(F)cc3)cc2[nH]1)N1CC(N2CCN(C(=O)c3nccs3)CC2)C1 [Cpd 1204] | 0.166 | Kd [1, 6]: 0.249 µM
10 | Cc1c(C(=O)N2CC(N3CCN(C(=O)c4nccs4)CC3)C2)[nH]c2ccc(-c3ccnn3C)cc12 [Cpd 1205] | 0.168 | Kd [1, 6]: 0.008 µM
11 | Cc1nc2cc(C(=O)N3CC(N4CCN(C(=O)c5nccs5)CC4)C3)ccc2n1-c1ccc(F)c(F)c1 [Cpd 1206] | 0.171 | Kd [1, 7]: 0.018 µM
12 | O=C(c1ccc2c(c1)ncn2-c1ccccc1)N1CC(N2CCN(C(=O)c3nccs3)CC2)C1 [Cpd 1207] | 0.179 | Kd [1, 5]: 0.014 µM
13 | O=C(c1cc2cc(-c3ccccc3)cnc2o1)N1CC(N2CCN(C(=O)c3nccs3)CC2)C1 [Cpd 1209] | 0.193 | Kd [1, 6]: 0.942 µM
14 | O=C(c1ccc2nc(-c3nccs3)sc2c1)N1CC(N2CCN(C(=O)c3nccs3)CC2)C1 [Cpd 1210] | 0.195 | Kd [1, 6]: 0.097 µM
15 | Cc1noc(C)c1-c1ccc2cc(C(=O)N3CC(N4CCN(C(=O)c5nccs5)CC4)C3)[nH]c2c1 [Cpd 1211] | 0.2 | Kd [1, 6]: 0.106 µM
16 | O=C(c1cc2cc(-c3ccc(F)cc3)cnc2o1)N1CC(N2CCN(C(=O)c3nccs3)CC2)C1 [Cpd 1213] | 0.206 | Kd [1, 6]: 0.765 µM

Row | Compound | IC50 [2] [µM] | also measured
17 | Cc1nc2cc(C(=O)N3CC(N4CCN(C(=O)c5nccs5)CC4)C3)ccc2n1-c1ccc(C(F)(F)F)cc1 [Cpd 1215] | 0.216 | Kd [1, 7]: 0.006 µM
18 | Cc1nccc(-n2ccc3cc(C(=O)N4CC(N5CCN(C(=O)c6nccs6)CC5)C4)ccc32)n1 [Cpd 1216, 1-(2-Methylpyrimidin-4-yl)-5-({3-[4-(1,3-thiazol-2-ylcarbonyl)piperazin-1-yl]azetidin-1-yl}carbonyl)-1H-indole] | 0.216 | Kd [1, 3]: 0.022 µM
19 | O=C(c1nccs1)N1CCN(C2CN(C(=O)c3cccc4oc(-c5ccc(Cl)cc5)nc34)C2)CC1 [Cpd 1220] | 0.255 | Kd [1, 4]: 0.015 µM
20 | O=C(c1ccc(-n2cnc3ccccc32)cc1)N1CC(N2CCN(C(=O)c3nccs3)CC2)C1 [Cpd 1223] | 0.267 | Kd [1, 5]: 0.111 µM
21 | Cc1nn(-c2ccc(Cl)c(Cl)c2)c(C)c1C(=O)N1CC(N2CCN(C(=O)c3nccs3)CC2)C1 [Cpd 1225] | 0.273 | Kd [1, 5]: 0.042 µM
22 | Cc1nc2cc(C(=O)N3CC(N4CCN(C(=O)c5nccs5)CC4)C3)ccc2n1-c1ccc(F)cc1 [Cpd 1227] | 0.287 | Kd [1, 7]: 0.011 µM
23 | Cc1nc2cc(C(=O)N3CC(N4CCN(C(=O)c5nccs5)CC4)C3)ccc2n1-c1ccccc1 [Cpd 1229] | 0.306 | Kd [1, 7]: 0.011 µM
24 | O=C(c1ccc(-c2ccccc2)cc1)N1CC(N2CCN(C(=O)C3CCC3)CC2)C1 [Cpd 1232] | 0.326 | Kd [1, 4]: 0.345 µM
25 | O=C(c1ccc(-c2cccc(C(F)(F)F)c2)cc1)N1CCN(C2CN(C(=O)c3cc[nH]c3)C2)CC1 [Cpd 1243, 1-[1-(1H-Pyrrol-3-ylcarbonyl)azetidin-3-yl]-4-{[3′-(trifluoromethyl)biphenyl-4-yl]carbonyl}piperazine] | 0.463 | Kd [1, 5]: 0.033 µM
26 | O=C(c1cc2ccc(-c3cccnc3F)cc2[nH]1)N1CC(N2CCN(C(=O)c3nccs3)CC2)C1 [Cpd 1244] | 0.463 | Kd [1, 6]: 0.589 µM
27 | O=C(c1ccc2c(ccn2-c2cccnc2)c1)N1CC(N2CCN(C(=O)c3ccc[nH]3)CC2)C1 [Cpd 1247, 1-Pyridin-3-yl-5-({3-[4-(1H-pyrrol-2-ylcarbonyl)piperazin-1-yl]azetidin-1-yl}carbonyl)-1H-indole] | 0.539 | Kd [1, 3]: 0.65 µM
28 | O=C(c1ccc(-n2ccc(C(F)(F)F)n2)cc1)N1CC(N2CCN(C(=O)c3nccs3)CC2)C1 [Cpd 1249] | 0.605 | Kd [1, 5]: 0.241 µM
29 | O=C(c1nccs1)N1CCN(C2CN(C(=O)c3cccc4oc(-c5cccnc5)nc34)C2)CC1 [Cpd 1251] | 0.684 | Kd [1, 4]: 0.146 µM
30 | O=C(c1nccs1)N1CCN(C2CN(C(=O)c3cccc4nc(-c5ccco5)[nH]c34)C2)CC1 [Cpd 1252] | 0.706 | Kd [1, 4]: 0.386 µM
31 | O=C(c1ccc(-c2ccccc2)cc1)N1CC(N2CCN(C(=O)C3CC3(F)F)CC2)C1 (stereo not shown) [Cpd 1256] | 0.808 | Kd [1, 4]: 0.393 µM

Now from value to compound, other results behind:

Row | IC50 [2] [µM] | Compound | also measured
32 | 0.116 | O=C(c1nccs1)N1CCN(C2CN(C(=O)c3cccc4oc(-c5ccccc5F)nc34)C2)CC1 [Cpd 1193] | Kd [1, 4]: 0.017 µM
33 | 0.118 | O=C(c1ccc2[nH]c(-c3ccccc3)nc2c1)N1CC(N2CCN(C(=O)c3nccs3)CC2)C1 [Cpd 1194] | Kd [1, 5]: 0.1 µM
34 | 0.133 | Cc1ccnc(-n2ccc3cc(C(=O)N4CC(N5CCN(C(=O)c6cscn6)CC5)C4)ccc32)c1 [Cpd 1197, 1-(4-Methylpyridin-2-yl)-5-({3-[4-(1,3-thiazol-4-ylcarbonyl)piperazin-1-yl]azetidin-1-yl}carbonyl)-1H-indole] | Kd [1, 3]: 0.065 µM
35 | 0.266 | O=C(c1ccc(-c2ccccc2)cc1)N1CC(N2CCN(C(=O)c3cocn3)CC2)C1 [Cpd 1222] | Kd [1, 4]: 0.068 µM
36 | 0.27 | O=C(c1nccs1)N1CCN(C2CN(C(=O)c3cn(-c4ccc(F)cc4)c4ccccc34)C2)CC1 [Cpd 1224] | Kd [1, 6]: 0.189 µM
37 | 0.282 | O=C(c1nccs1)N1CCN(C2CN(C(=O)c3cn(-c4cccc(F)c4)c4ccccc34)C2)CC1 [Cpd 1226] | Kd [1, 6]: 0.193 µM
38 | 0.295 | O=C(c1cccc(-c2cccc(F)c2)c1)N1CC(N2CCN(C(=O)c3cscn3)CC2)C1 [Cpd 1228] | Kd [1, 5]: 1.42 µM
39 | 0.307 | Cc1cn(-c2ccc(F)cc2)c2ccc(C(=O)N3CCN(C4CN(C(=O)c5cscn5)C4)CC3)cc12 [Cpd 1230, 1-(4-Fluorophenyl)-3-methyl-5-({4-[1-(1,3-thiazol-4-ylcarbonyl)azetidin-3-yl]piperazin-1-yl}carbonyl)-1H-indole] | Kd [1, 5]: 0.009 µM
40 | 0.316 | O=C(c1ccc2c(c1)ncn2-c1ccc(C(F)(F)F)cc1)N1CC(N2CCN(C(=O)c3cscn3)CC2)C1 [Cpd 1231] | Kd [1, 7]: 0.131 µM
41 | 0.343 | O=C(c1ccc2nc(-c3ccccc3)oc2c1)N1CCN(C2CN(C(=O)c3nccs3)C2)CC1 [Cpd 1233] | Kd [1, 4]: 0.19 µM
42 | 0.393 | O=C(c1cscn1)N1CCN(C2CN(C(=O)c3cccc4nc(-c5ccccc5)oc34)C2)CC1 [Cpd 1237] | Kd [1, 4]: 0.064 µM
43 | 0.437 | O=C(c1cscn1)N1CCN(C2CN(C(=O)c3cccc4nc(-c5cccc(Cl)c5)oc34)C2)CC1 [Cpd 1238] | Kd [1, 4]: 0.125 µM
44 | 0.449 | O=C(c1cccc(-c2ccc(F)cc2F)c1)N1CC(N2CCN(C(=O)c3cscn3)CC2)C1 [Cpd 1239] | Kd [1, 5]: 3.04 µM
45 | 0.459 | O=C(c1cscn1)N1CCN(C2CN(C(=O)c3cccc(-c4ccccc4)c3F)C2)CC1 [Cpd 1240] | Kd [1, 5]: 2.49 µM
46 | 0.461 | O=C(c1ccc(-c2ccccc2)cc1)N1CCN(C2CN(C(=O)c3cccc(F)c3)C2)CC1 [Cpd 1242, 1-(Biphenyl-4-ylcarbonyl)-4-{1-[(3-fluorophenyl)carbonyl]azetidin-3-yl}piperazine] | Kd [1, 5]: 0.197 µM
47 | 0.506 | O=C(c1ccc(-c2ccccc2)cc1)N1CCN(C2CN(C(=O)c3cscn3)C2)CC1 [Cpd 1246, 1-(Biphenyl-4-ylcarbonyl)-4-[1-(1,3-thiazol-4-ylcarbonyl)azetidin-3-yl]piperazine] | Kd [1, 5]: 0.042 µM
